Measurements published in ChEMBL document CHEMBL1122392, “C4-substituted 1-beta-D-ribofuranosylpyrazolo[3,4-d]pyrimidines as adenosine agonist analogues” (J Med Chem, 1983).

How the values were obtained:
Adenosine receptor = Adenosine receptor (Rattus norvegicus, UniProt P29276+P25099+P30543+P28647); assay: Displacement of [3H]CHA from rat brain adenosine receptor
[1] = biological target: Adenosine receptor (Rattus norvegicus) (UniProt P29276+P25099+P30543+P28647); assay: Displacement of [3H]CHA from rat brain adenosine receptor at 10e-4 M
Adenosine receptor (Rattus norvegicus), sequence (P25099 whole entry, looked up): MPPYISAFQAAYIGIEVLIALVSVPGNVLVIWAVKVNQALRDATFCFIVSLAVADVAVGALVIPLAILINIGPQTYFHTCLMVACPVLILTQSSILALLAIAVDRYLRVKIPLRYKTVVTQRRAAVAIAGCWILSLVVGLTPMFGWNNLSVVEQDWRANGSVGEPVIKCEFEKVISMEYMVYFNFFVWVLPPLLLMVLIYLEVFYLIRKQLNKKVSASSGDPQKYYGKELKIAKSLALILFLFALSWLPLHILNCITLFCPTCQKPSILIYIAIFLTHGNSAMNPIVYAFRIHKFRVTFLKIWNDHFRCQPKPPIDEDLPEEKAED
Adenosine receptor (Rattus norvegicus), sequence (P28647 whole entry, looked up): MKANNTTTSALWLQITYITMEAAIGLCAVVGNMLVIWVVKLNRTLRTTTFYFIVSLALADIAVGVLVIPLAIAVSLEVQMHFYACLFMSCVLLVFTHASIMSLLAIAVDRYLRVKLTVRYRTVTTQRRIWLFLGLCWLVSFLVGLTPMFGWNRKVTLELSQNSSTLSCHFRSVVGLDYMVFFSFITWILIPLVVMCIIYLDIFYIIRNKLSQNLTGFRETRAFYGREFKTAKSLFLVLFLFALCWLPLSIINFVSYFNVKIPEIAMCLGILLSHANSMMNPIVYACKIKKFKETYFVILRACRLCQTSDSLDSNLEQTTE
Adenosine receptor (Rattus norvegicus), sequence (P29276 whole entry, looked up): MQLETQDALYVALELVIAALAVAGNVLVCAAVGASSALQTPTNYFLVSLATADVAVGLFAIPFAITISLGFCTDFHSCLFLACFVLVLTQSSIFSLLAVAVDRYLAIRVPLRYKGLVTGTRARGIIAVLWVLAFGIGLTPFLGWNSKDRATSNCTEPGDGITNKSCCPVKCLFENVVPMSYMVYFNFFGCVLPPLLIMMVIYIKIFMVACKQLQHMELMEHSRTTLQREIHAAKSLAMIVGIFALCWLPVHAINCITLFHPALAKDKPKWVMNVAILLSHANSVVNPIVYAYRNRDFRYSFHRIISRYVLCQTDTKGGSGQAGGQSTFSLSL
Adenosine receptor (Rattus norvegicus), sequence (P30543 whole entry, looked up): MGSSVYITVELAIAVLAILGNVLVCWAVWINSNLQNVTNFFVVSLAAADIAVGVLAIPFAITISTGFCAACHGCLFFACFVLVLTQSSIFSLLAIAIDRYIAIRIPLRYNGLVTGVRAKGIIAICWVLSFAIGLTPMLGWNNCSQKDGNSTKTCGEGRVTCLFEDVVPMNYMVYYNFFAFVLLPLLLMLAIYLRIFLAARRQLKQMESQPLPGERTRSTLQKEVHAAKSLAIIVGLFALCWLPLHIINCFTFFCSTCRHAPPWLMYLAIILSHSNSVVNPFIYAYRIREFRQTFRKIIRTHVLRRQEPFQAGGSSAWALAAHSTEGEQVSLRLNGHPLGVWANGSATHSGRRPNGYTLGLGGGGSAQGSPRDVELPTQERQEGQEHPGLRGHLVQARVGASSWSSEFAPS

Compound | IC50 (Adenosine receptor) [µM] | inhibition [1] [%]
OC[C@H]1OC(n2ncc3c(NC4CCCCC4)ncnc32)[C@H](O)[C@@H]1O (stereo not given in full) | 20.2 | 
CCCNc1ncnc2c1ncn2C1O[C@H](CO)[C@@H](O)[C@H]1O (stereo not given in full) | 0.004 | 
CCCNc1ncnc2c1cnn2C1O[C@H](CO)[C@@H](O)[C@H]1O (stereo not given in full) | 76.5 | 

Further lines, results first:

IC50 (Adenosine receptor) [µM] | inhibition [1] [%] | Compound
 | 31 | C[C@@H](Cc1ccccc1)Nc1ncnc2c1cnn2[C@@H]1O[C@H](CO)[C@@H](O)[C@H]1O (stereo in doubt)
 | 47 | C[C@@H](Cc1ccccc1)Nc1ncnc2c1cnn2[C@@H]1O[C@H](CO)[C@@H](O)[C@H]1O (stereo in doubt; 1)
